A short description of the data set: RP, Waters Atlantis T3, 50 × 4.6 mm, 5 µm, 40 °C, 0.8 mL/min, estimated dead time 0.66 min; A: water + 0.05% trifluoroacetic acid; B: acetonitrile + 0.1% formic acid, pH 3; gradient (min/%B) 0/10 1/10 7/95 12/95 12.5/10 14/10. The settings on record: stereoisomer not certain.

With `COC1C(OC(N)=O)C(O)C(Oc2ccc3c(O)c(NC(=O)c4ccc(O)c(CC=C(C)C)c4)c(=O)oc3c2C)OC1(C)C` (stereo not given) [Novobiocin], the LC retention time is 7.62 min.

With `CCC(C(=O)O)C1CCC(C)C(C(C)C(O)C(C)C(=O)C(CC)C2OC3(C=CC(O)C4(CCC(C)(C5CCC(O)(CC)C(C)O5)O4)O3)C(C)CC2C)O1` (stereo not given) [Salinomycin], the LC retention time is 11.2 min.

For `CC(=O)OC1CC2(C)C(CC(O)C3C4(C)CCC(O)C(C)C4CCC32C)C1=C(CCC=C(C)C)C(=O)O` (stereo not given) [Fusidinic acid], the LC retention time was 8.3 min.

Turning to `C=C(NC(=O)C(=C)NC(=O)c1csc(C2=NC3c4csc(n4)C4NC(=O)c5csc(n5)C(C(C)(O)C(C)O)NC(=O)C5CSC(=N5)C(=CC)NC(=O)C(C(C)O)NC(=O)c5csc(n5)C3(CC2)NC(=O)C(C)NC(=O)C(=C)NC(=O)C(C)NC(=O)C(C(C)CC)NC2C=Cc3c(C(C)O)cc(nc3C2O)C(=O)OC4C)n1)C(N)=O` (stereo not given) [Thiostrepton], the LC retention time is 6.65 min.

With `CCC1OC(=O)C(C)C(OC2CC(C)(OC)C(O)C(C)O2)C(C)C(OC2OC(C)CC(N(C)C)C2O)C(C)(OC)CC(C)C(=O)C(C)C(O)C1(C)O` (stereo not given) [Clarithromycin], the LC retention time was 5.91 min.

With `CC1(C)SC2C(NC(=O)Cc3ccccc3)C(=O)N2C1C(=O)O` (stereo not given) [Penicillin G], the LC retention time was 5.75 min.

In the case of `CNC(=O)CC1NC(=O)c2csc(n2)-c2ccc(-c3nc(C4=NC(C(=O)N5CCCC5C(N)=O)CO4)cs3)nc2-c2csc(n2)-c2csc(n2)C(C(O)c2ccccc2)NC(=O)CNC(=O)c2nc(sc2COC)C(C(C)C)NC(=O)c2nc1sc2C` (stereo not given) [GE2270A], the LC retention time is 6.62 min.

In the case of `CCC(C)CCCC(=O)NC(CCN)C(=O)NC(C(=O)NC(CCN)C(=O)NC1CCNC(=O)C(C(C)O)NC(=O)C(CCN)NC(=O)C(CCN)NC(=O)C(CC(C)C)NC(=O)C(CC(C)C)NC(=O)C(CCN)NC1=O)C(C)O` (stereo not given) [Colistin], the LC retention time was 4.44 min.

For `CC1C(NC(=O)C(=NOC(C)(C)C(=O)O)c2csc(N)n2)C(=O)N1S(=O)(=O)O` (stereo not given) [Aztreonam], the LC retention time was 2.91 min.

`CCCC=CC=CC(=O)NC(CC(N)=O)C(=O)NC(CC(N)=O)C(=O)NC(C(=O)NC(CCCN)C(=O)NC(C(=O)NC(C(=O)NC(C(=O)NC(C(=O)NC(Cc1ccccc1)C(=O)NC(CCCN)C(=O)NC(C(=O)NC(C(=O)NC(C(=O)NCC(=O)NC(CC(C)C)C(=O)NC(C)C(=O)NC(C(=O)O)C1CCC(O)C(Cl)C1)C1CCC(O)CC1)C(C)O)C1CCC(O)CC1)C(C)O)C1CCC(O)CC1)C1CCC(O)CC1)C(C)O)C1CCC(O)CC1` (stereo not given) [Ramoplanin A]: the LC retention time was 5.22 min.

As to `COc1cc(Cc2cnc(N)nc2N)cc(OC)c1OC` [Trimethoprim], the LC retention time was 4.06 min.

With `CC1(C)SC2C(NC(=O)C(N)c3ccccc3)C(=O)N2C1C(=O)O` (stereo not given) [Ampicillin], the LC retention time was 4.09 min.

In the case of `CCCCCCCCCC(=O)NC(Cc1c[nH]c2ccccc12)C(=O)NC(CC(N)=O)C(=O)NC(CC(=O)O)C(=O)NC1C(=O)NCC(=O)NC(CCCN)C(=O)NC(CC(=O)O)C(=O)NC(C)C(=O)NC(CC(=O)O)C(=O)NCC(=O)NC(CO)C(=O)NC(C(C)CC(=O)O)C(=O)NC(CC(=O)c2ccccc2N)C(=O)OC1C` (stereo not given) [Daptomycin], the LC retention time is 5.79 min.

Take `COc1cccc2c1C(=O)c1c(O)c3c(c(O)c1C2=O)CC(O)(C(C)=O)CC3OC1CC(N)C(O)C(C)O1` (stereo not given) [Daunomycin]: the LC retention time is 5.44 min.

Regarding `CCCC1CC(C(=O)NC(C(C)Cl)C2OC(SC)C(O)C(O)C2O)N(C)C1` (stereo not given) [Clindamycin], the LC retention time was 4.83 min.

For `COC1C=COC2(C)Oc3c(C)c(O)c4c(O)c(c(C=NN5CCN(C)CC5)c(O)c4c3C2=O)NC(=O)C(C)=CC=CC(C)C(O)C(C)C(O)C(C)C(OC(C)=O)C1C` (stereo not given) [Rifampicin], the LC retention time was 6.17 min.

As to `C=C(NC(=O)c1csc(-c2nc3c(cc2O)-c2nc(cs2)C(=O)NC(C(C)O)C(=O)NC(=CC)c2nc(cs2)C(=O)NC2CC(O)C(=O)OCc4cccc5[nH]c(c(C)c45)C(=O)SCC(NC(=O)c4csc2n4)c2nc-3cs2)n1)C(N)=O` (stereo not given) [Nosiheptide], the LC retention time is 6.77 min.

For the compound `CC=CC=CC1OC(O)(C(CC)C(=O)NCC=CC=C(C)C(OC)C(C)C2OC(C=CC=CC=C(C)C(=O)c3c(O)cc[nH]c3=O)C(O)C2O)C(O)C(O)C1(C)C` (stereo not given) [Kirromycin], the LC retention time is 6.52 min.

`CNC(CC(C)C)C(=O)NC1C(=O)NC(CC(N)=O)C(=O)NC2C(=O)NC3C(=O)NC(C(=O)NC(C(=O)O)c4cc(O)cc(O)c4-c4cc3ccc4O)C(O)c3ccc(c(Cl)c3)Oc3cc2cc(c3OC2OC(CO)C(O)C(O)C2OC2CC(C)(N)C(O)C(C)O2)Oc2ccc(cc2Cl)C1O` (stereo not given) [Vancomycin]: the LC retention time is 3.55 min.

Take `CC(=O)NC1C(OC2c3ccc(c(Cl)c3)Oc3cc4cc(c3O)Oc3ccc(cc3Cl)CC3NC(=O)C(N)c5ccc(O)c(c5)Oc5cc(O)cc(c5)C(NC3=O)C(=O)NC4C(=O)NC3C(=O)NC2C(=O)NC(C(=O)O)c2cc(O)cc(OC4OC(CO)C(O)C(O)C4O)c2-c2cc3ccc2O)OC(CO)C(O)C1O` (stereo not given) [Teicoplanin A3-1]: the LC retention time is 4.02 min.

Values taken from the RepoRT retention time repository.
